Source: patent publication US10093630B2, “Pyrazole compounds and methods of making and using same” (ABIDE THERAPEUTICS, INC., priority 2014, dated 2018)
Read-outs that look alike come from different tables or passages of the source.

Key:
Assay in all cases: In vitro competitive activity-based protein profiling (gel-based, FP-Rh or HT-01 probe)
Assay type in all cases: biochemical
FAAH = target: T1, FAAH (Mus musculus, UniProt O08914); conditions: for inhibition at 1 µM: 1 μM inhibitor, read-out: % Inhibition at 1 μM, B = FAAH; for inhibition at 10 µM: 10 μM inhibitor, read-out: % Inhibition at 10 μM, B = FAAH; for IC50: mouse brain membrane fraction or cell lysates, 30 min preincubation at 37° C., read-out: Mouse (IC50 value, nM) FAAH
T1 construct: Proteomes (mouse brain membrane fraction or cell lysates); from tissue; host or cells: mouse brain membrane fraction (or cell lysates, not specified)
T1 sequence (O08914 1-579): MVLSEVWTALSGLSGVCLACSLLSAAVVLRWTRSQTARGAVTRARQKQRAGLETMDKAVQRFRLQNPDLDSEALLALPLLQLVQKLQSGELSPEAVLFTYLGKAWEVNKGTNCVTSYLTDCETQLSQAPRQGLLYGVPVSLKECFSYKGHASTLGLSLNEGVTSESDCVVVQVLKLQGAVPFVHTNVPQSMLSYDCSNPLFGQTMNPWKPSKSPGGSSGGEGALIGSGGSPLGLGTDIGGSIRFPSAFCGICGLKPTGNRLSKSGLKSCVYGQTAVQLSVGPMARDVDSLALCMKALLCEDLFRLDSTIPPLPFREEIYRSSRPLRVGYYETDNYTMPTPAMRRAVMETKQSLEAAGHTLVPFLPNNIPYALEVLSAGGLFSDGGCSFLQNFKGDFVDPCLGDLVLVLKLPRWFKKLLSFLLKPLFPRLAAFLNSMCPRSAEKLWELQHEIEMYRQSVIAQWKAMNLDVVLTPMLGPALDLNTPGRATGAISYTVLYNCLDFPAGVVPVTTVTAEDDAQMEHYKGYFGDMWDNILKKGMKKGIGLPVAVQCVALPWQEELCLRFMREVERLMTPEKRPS
Summary of the method: (§1)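 Competitive labelling format in mouse brain membrane fractions or lysates at 1.0 mg/mL total protein: compounds preincubate 30 min at 37° C, activity probe FP-Rh or HT-01 then reacts 30 min at 37° C. Gel band fluorescence gives target activity.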

MAGL = target: T2, MAGL (Mus musculus, UniProt O35678); conditions: for inhibition at 1 µM: 1 μM inhibitor; for inhibition at 10 µM: 10 μM inhibitor; for IC50: mouse brain membrane fraction or cell lysates, 30 min preincubation at 37° C., read-out: Mouse (IC50 value, nM) MAGL
T2 construct: Proteomes (mouse brain membrane fraction or cell lysates); from tissue; host or cells: mouse brain membrane fraction (or cell lysates, not specified)
T2 sequence (O35678 1-303): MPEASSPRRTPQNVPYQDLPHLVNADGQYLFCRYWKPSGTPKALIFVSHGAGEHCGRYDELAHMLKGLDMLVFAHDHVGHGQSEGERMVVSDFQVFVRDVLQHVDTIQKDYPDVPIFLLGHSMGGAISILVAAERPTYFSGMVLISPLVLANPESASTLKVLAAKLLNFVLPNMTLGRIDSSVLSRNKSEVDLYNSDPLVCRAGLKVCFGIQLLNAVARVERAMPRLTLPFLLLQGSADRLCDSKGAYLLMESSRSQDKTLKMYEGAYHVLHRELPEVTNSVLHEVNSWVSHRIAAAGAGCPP
Summary of the method: as §1

PLA2G7 = target: T3, PLA2G7 (Mus musculus, UniProt Q60963); conditions: for inhibition at 1 µM: 1 μM inhibitor, read-out: % Inhibition at 1 μM, D = PLA2G7; for inhibition at 10 µM: 10 μM inhibitor, read-out: % Inhibition at 10 μM, D = PLA2G7
T3 construct: Proteomes (mouse brain membrane fraction or cell lysates); from tissue; host or cells: mouse brain membrane fraction (or cell lysates, not specified)
T3 sequence (Q60963 22-440): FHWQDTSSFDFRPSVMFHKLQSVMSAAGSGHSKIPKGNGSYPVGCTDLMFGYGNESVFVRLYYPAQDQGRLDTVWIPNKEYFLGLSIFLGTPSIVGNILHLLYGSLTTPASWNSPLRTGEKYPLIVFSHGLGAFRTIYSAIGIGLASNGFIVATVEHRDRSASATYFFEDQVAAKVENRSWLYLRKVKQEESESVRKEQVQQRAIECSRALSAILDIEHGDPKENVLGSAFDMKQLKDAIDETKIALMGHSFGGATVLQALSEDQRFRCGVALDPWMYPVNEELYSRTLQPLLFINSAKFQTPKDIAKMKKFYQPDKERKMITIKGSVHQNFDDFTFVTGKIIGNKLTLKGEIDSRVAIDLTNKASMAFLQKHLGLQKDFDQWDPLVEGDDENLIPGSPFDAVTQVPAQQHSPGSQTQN
Summary of the method: as §1

ABHD6 = target: T4, ABHD6 (Mus musculus, UniProt Q8R2Y0); conditions: for inhibition at 1 µM: 1 μM inhibitor, read-out: % Inhibition at 1 μM, C = ABHD6; for inhibition at 10 µM: 10 μM inhibitor, read-out: % Inhibition at 10 μM, C = ABHD6; for IC50: mouse brain membrane fraction or cell lysates, 30 min preincubation at 37° C., read-out: Mouse (IC50 value, nM) ABHD6
T4 construct: Proteomes (mouse brain membrane fraction or cell lysates); from tissue; host or cells: mouse brain membrane fraction (or cell lysates, not specified)
T4 sequence (Q8R2Y0 1-336): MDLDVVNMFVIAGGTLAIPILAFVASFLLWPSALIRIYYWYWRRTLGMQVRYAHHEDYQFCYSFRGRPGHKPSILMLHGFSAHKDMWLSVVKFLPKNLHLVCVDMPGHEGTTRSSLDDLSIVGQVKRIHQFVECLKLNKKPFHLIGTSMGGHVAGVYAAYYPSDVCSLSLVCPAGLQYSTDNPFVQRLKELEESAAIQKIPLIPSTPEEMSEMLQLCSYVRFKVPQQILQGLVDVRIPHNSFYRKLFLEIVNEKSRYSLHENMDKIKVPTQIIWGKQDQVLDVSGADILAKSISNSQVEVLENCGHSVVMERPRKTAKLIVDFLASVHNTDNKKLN
Summary of the method: as §1

Row | Structure (SMILES) | inhibition at 1 µM (FAAH) [%] | inhibition at 10 µM (FAAH) [%] | inhibition at 1 µM (MAGL) [%] | inhibition at 10 µM (MAGL) [%] | inhibition at 1 µM (PLA2G7) [%] | inhibition at 10 µM (PLA2G7) [%] | inhibition at 1 µM (ABHD6) [%] | inhibition at 10 µM (ABHD6) [%] | IC50 (ABHD6) [nM] | inhibition at 1 µM (FAAH; gel-based competitive ABPP) [%] | inhibition at 1 µM (MAGL; gel-based competitive ABPP) [%] | inhibition at 1 µM (PLA2G7; gel-based competitive ABPP) [%] | inhibition at 1 µM (ABHD6; gel-based competitive ABPP) [%] | IC50 (FAAH) [nM] | IC50 (MAGL) [nM]
1 | CN(CCN(C)S(C)(=O)=O)C(=O)n1cc(C(F)(F)F)cn1 [Example 195, N-Methyl-N-(2-(N-methylmethylsulfonamido)ethyl)-4-(trifluoromethyl)-1H-pyrazole-1-carboxamide] | < 25 | > 75 | < 25 | < 25 | < 25 | 25 to 75 | < 25 | > 75 | – | – | – | – | – | – | –
2 | N#Cc1cnn(C(=O)NCc2ccc3ccccc3c2)c1 [Example 45, 4-Cyano-N-(naphthalen-2-ylmethyl)-1H-pyrazole-1-carboxamide] | < 25 | > 75 | < 25 | 25 to 75 | < 25 | < 25 | < 25 | < 25 | – | – | – | – | – | – | –
3 | CCN(Cc1ccc(Cl)cc1)C(=O)n1cc(C)cn1 [Example 254, N-(4-Chlorobenzyl)-N-ethyl-4-methyl-1H-pyrazole-1-carboxamide] | – | – | – | – | – | – | – | – | – | < 25 | < 25 | < 25 | < 25 | – | –
4 | CC(C)(C)OC(=O)N1CCCN(C(=O)n2cccn2)CC1 [Example 25, tert-Butyl 4-(1H-pyrazole-1-carbonyl)-1,4-diazepane-1-carboxylate] | < 25 | < 25 | < 25 | < 25 | < 25 | < 25 | < 25 | 25 to 75 | – | – | – | – | – | – | –
5 | O=C(N1CCOCC1)n1cc(C(F)(F)F)cn1 [Example 201, Morpholino(4-(trifluoromethyl)-1H-pyrazol-1-yl)methanone] | > 75 | > 75 | < 25 | 25 to 75 | > 75 | > 75 | > 75 | > 75 | – | – | – | – | – | – | –
6 | CCN(Cc1cccc(Cl)c1)C(=O)n1cc(Cl)cn1 [Example 134, 4-Chloro-N-(3-chlorobenzyl)-N-ethyl-1H-pyrazole-1-carboxamide] | > 75 | > 75 | 25 to 75 | > 75 | < 25 | < 25 | < 25 | > 75 | > 1000 | – | – | – | – | 100 to 1000 | > 1000
7 | CS(=O)(=O)N1CCN(C(=O)n2cc(C(F)(F)F)cn2)CC1 [Example 150, (4-(Methylsulfonyl)piperazin-1-yl)(4-(trifluoromethyl)-1H-pyrazol-1-yl)methanone] | < 25 | 25 to 75 | < 25 | 25 to 75 | > 75 | > 75 | > 75 | > 75 | – | – | – | – | – | – | –

Further lines, results first:

Row | inhibition at 1 µM (FAAH) [%] | inhibition at 10 µM (FAAH) [%] | inhibition at 1 µM (MAGL) [%] | inhibition at 10 µM (MAGL) [%] | inhibition at 1 µM (PLA2G7) [%] | inhibition at 10 µM (PLA2G7) [%] | inhibition at 1 µM (ABHD6) [%] | inhibition at 10 µM (ABHD6) [%] | IC50 (ABHD6) [nM] | inhibition at 1 µM (FAAH; gel-based competitive ABPP) [%] | inhibition at 1 µM (MAGL; gel-based competitive ABPP) [%] | inhibition at 1 µM (PLA2G7; gel-based competitive ABPP) [%] | inhibition at 1 µM (ABHD6; gel-based competitive ABPP) [%] | IC50 (FAAH) [nM] | IC50 (MAGL) [nM] | Structure (SMILES)
8 | < 25 | < 25 | 25 to 75 | > 75 | – | > 75 | > 75 | > 75 | > 1000 | – | – | – | – | – | – | O=C(N1CCN(Cc2ccc(C(F)(F)F)cc2N2CCCC2)CC1)n1cc(-c2ccc(C(F)(F)F)cc2)cn1 [Example 116, (4-(2-(Pyrrolidin-1-yl)-4-(trifluoromethyl)benzyl)piperazin-1-yl)(4-(4-(trifluoromethyl)phenyl)-1H-pyrazol-1-yl)methanone]
9 | > 75 | > 75 | < 25 | 25 to 75 | > 75 | > 75 | 25 to 75 | > 75 | – | – | – | – | – | – | – | N#Cc1cnn(C(=O)N2CCOCC2)c1 [Example 205, 1-(Morpholine-4-carbonyl)-1H-pyrazole-4-carbonitrile]
10 | > 75 | > 75 | < 25 | > 75 | 25 to 75 | > 75 | 25 to 75 | > 75 | – | – | – | – | – | – | – | O=C(N1CCCC1)n1cc(C(F)(F)F)cn1 [Example 199, Pyrrolidin-1-yl(4-(trifluoromethyl)-1H-pyrazol-1-yl)methanone]
11 | – | – | – | – | – | – | – | – | – | < 25 | 25 to 75 | < 25 | < 25 | – | – | Cc1cnn(C(=O)N2CCCN(Cc3ccc(OCc4ccccc4)cc3)CC2)c1 [Example 302, (4-(4-(Benzyloxy)benzyl)-1,4-diazepan-1-yl)(4-methyl-1H-pyrazol-1-yl)methanone]
12 | – | > 75 | – | < 25 | – | > 75 | – | 25 to 75 | – | – | – | – | – | – | – | O=C(c1cnn(C(=O)N2CCN(Cc3ccccn3)CC2)c1)N1CCC1 [Example 89, Azetidin-1-yl(1-(4-(pyridin-2-ylmethyl)piperazine-1-carbonyl)-1H-pyrazol-4-yl)methanone]
13 | > 75 | > 75 | < 25 | < 25 | > 75 | > 75 | > 75 | > 75 | – | – | – | – | – | – | – | O=C(N1CCCCC1)n1cc(-c2ccccc2)cn1 [Example 136, (4-Phenyl-1H-pyrazol-1-yl)(piperidin-1-yl)methanone]
14 | > 75 | > 75 | > 75 | > 75 | < 25 | > 75 | > 75 | > 75 | 100 to 1000 | – | – | – | – | 100 to 1000 | < 100 | O=C(N1CCN(Cc2ccc(N3CCCC3)cc2)CC1)n1cc(Cl)cn1 [Example 212, (4-Chloro-1H-pyrazol-1-yl)(4-(4-(pyrrolidin-1-yl)benzyl)piperazin-1-yl)methanone]
